# Patent publication US8759520B2, “Compounds for treating cancer” (Boehringer Ingelheim International GmbH, priority 2008, dated 2014)
# Target: T1, Bcl-2 (Homo sapiens, UniProt P10415)
# Assay: Homogeneous HTS assay for inhibitors of the Bcl-2 : Bak (72-87) BH3 domain interaction, fluorescence polarisation (2D-FIDA)
# Format: binding
# Conditions: fluorescence polarisation, fluorescent labelled Bak BH3 domain derived peptide; read-out: IC50 [μM] Bcl-2
# T1 sequence (P10415 whole entry, species assumed, the tested form may be a part): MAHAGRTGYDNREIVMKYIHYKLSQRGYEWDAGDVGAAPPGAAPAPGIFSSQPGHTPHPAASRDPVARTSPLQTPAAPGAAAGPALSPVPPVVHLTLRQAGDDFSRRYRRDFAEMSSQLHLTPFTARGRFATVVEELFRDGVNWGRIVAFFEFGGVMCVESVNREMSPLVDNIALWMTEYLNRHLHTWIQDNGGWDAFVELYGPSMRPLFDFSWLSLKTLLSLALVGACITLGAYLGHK
row,Compound,IC50 [µM]
1,"N=c1n(CCCOc2ccccc2)c2ccccc2n1Cc1ccccc1F [Compound 96, 1-(2-Fluoro-benzyl)-3-(3-phenoxy-propyl)-1,3-dihydro-benzoimidazol-2-ylideneamine]",11 to 100
2,"N=c1n(CCCOc2ccc(F)cc2)c2ccccc2n1Cc1ccccc1 [Compound 97, 1-Benzyl-3-[3-(4-fluoro-phenoxy)-propyl]-1,3-dihydro-benzoimidazol-2-ylideneamine]",11 to 100
3,"N=c1n(Cc2ccccc2Cl)c2ccccc2n1CC(O)COc1ccccc1 (stereo not drawn) [Compound 102, 1-[3-(2-Chloro-benzyl)-2-imino-2,3-dihydro-benzoimidazol-1-yl]-3-phenoxy-propan-2-ol]",> 100
4,"CC(C)(C)c1ccc(Cn2c(=N)n(CC(O)COc3ccccc3)c3ccccc32)cc1 (stereo not drawn) [Compound 104, 1-[3-(4-tert-Butyl-benzyl)-2-imino-2,3-dihydro-benzoimidazol-1-yl]-3-phenoxy-propan-2-ol]",11 to 100
5,"N=c1n(Cc2ccc(Cl)cc2)c2ccccc2n1CC(O)COc1ccc(Cl)cc1 (stereo not drawn) [Compound 105, 1-[3-(4-Chloro-benzyl)-2-imino-2,3-dihydro-benzoimidazol-1-yl]-3-(4-chloro-phenoxy)-propan-2-ol]",11 to 100

# Further lines, results first:
row,IC50 [µM],Compound
1,11 to 100,"CCCCCn1c(=N)n(CC(O)COc2ccccc2OC)c2ccccc21 (stereo not drawn) [Compound 98, 1-(2-Imino-3-pentyl-2,3-dihydro-benzoimidazol-1-yl)-3-(2-methoxy-phenoxy)-propan-2-ol]"
2,11 to 100,"Cc1ccc(OCC(O)Cn2c(=N)n(Cc3ccccc3)c3ccccc32)cc1 (stereo not drawn) [Compound 99, 1-(3-Benzyl-2-imino-2,3-dihydro-benzoimidazol-1-yl)-3-p-tolyloxy-propan-2-ol]"
3,11 to 100,"Cc1ccc(Cn2c(=N)n(CC(O)COc3ccccc3)c3ccccc32)cc1 (stereo not drawn) [Compound 100, 1-[2-Imino-3-(4-methyl-benzyl)-2,3-dihydro-benzoimidazol-1-yl]-3-phenoxy-propan-2-ol]"
4,11 to 100,"CCCCCCn1c(=N)n(CC(O)COc2ccccc2OC)c2ccccc21 (stereo not drawn) [Compound 101, 1-(3-Hexyl-2-imino-2,3-dihydro-benzoimidazol-1-yl)-3-(2-methoxy-phenoxy)-propan-2-ol]"
5,11 to 100,"N=c1n(Cc2ccc(Cl)cc2)c2ccccc2n1CC(O)COc1ccccc1 (stereo not drawn) [Compound 103, 1-[3-(4-Chloro-benzyl)-2-imino-2,3-dihydro-benzoimidazol-1-yl]-3-phenoxy-propan-2-ol]"
6,11 to 100,"N=c1n(Cc2ccccc2)c2ccccc2n1CC(O)COc1ccc(Cl)cc1Cl (stereo not drawn) [Compound 106, 1-(3-Benzyl-2-imino-2,3-dihydro-benzoimidazol-1-yl)-3-(2,4-dichloro-phenoxy)-propan-2-ol]"

# Target: T1, Bcl-2
# Assay: not given
# Conditions: reported by Wang and co-workers; read-out: equilibrium binding constant KD to Bcl-2 protein; cited from earlier work
row,Compound,Kd [µM]
1,"BH3 domain derived peptide ligand, sequence GQVGRQLAIIGDDINR, fluorescently labelled for the assay",~0.2
